Measured values as given in patent US11977075B2, “Method of predicting personalized response to cancer treatment with immune checkpoint inhibitors, method of treating cancer, and kit therefor” (Rappaport Family Institute for Research in the Medical …, priority 2017, dated 2024).

Experiments:
[1] = tested on: EMT6 murine breast carcinoma; experiment: EMT6 primary breast tumor model, ICI combined with SB-3CT; assay type: in vivo, BALB/c mice; conditions: combination with either anti-PD-1 or anti-PD-L1 vs anti-PD-1 or anti-PD-L1 monotherapy
Experimental: Control mice are injected with IgG antibody and vehicle (10% DMSO in normal saline). Mice receiving either anti-PD-1 or anti-PD-L1 monotherapies are also injected with vehicle (10% DMSO in normal saline). Mice receiving SB3-CT monotherapy are also injected with IgG control antibodies. Tumor growth and mouse survival are monitored. At endpoint (when tumors reach a size of ˜1500 mm^3), mice are sacrificed.

cancer patients = conditions: pooled data from clinical studies; cited from earlier work

| Compound | increasing survival [1] | reducing tumor size [1] | duration of clinical response (cancer patients) | duration of clinical response, can last up to (cancer patients) | subset of patients in which the therapeutic effect is observed (cancer patients) |
| --- | --- | --- | --- | --- | --- |
| O=S(=O)(CC1CS1)c1ccc(Oc2ccccc2)cc1 (centres unmarked) [SB-3CT, 2-(((4-phenoxyphenyl)sulfonyl)methyl)thiirane] | more effective | more effective |  |  |  |
| ipilimumab |  |  | around 3 years | up to 10 years | ~20% |
